Assay results: ChEMBL document CHEMBL1145163, “Structure-based design, synthesis, and memapsin 2 (BACE) inhibitory activity of carbocyclic and heterocyclic peptidomimetics” (J Med Chem, 2005)
Starred links: 1 amine or outer side, 2 acyl side, 3 side chain; linkers in the order of their positions; H or OH if unused. Non-standard residues stand in square brackets, D forms with d. Residues, ends and D or L forms follow the SMILES beside them. LeuΨ(S-CHOHCH2)Ala = CC(C)C[C@H](N[*:1])[C@@H](O)C[C@@H](C)C(=O)[*:2]; X1 = CC(C)C[C@H](N[*:1])[C@@H](O)[C@@H]1CCC[C@H]1C(=O)[*:2]

Columns and labels:
Beta-secretase 1 [1] = target: T1, Beta-secretase 1 (Homo sapiens, UniProt P56817); assay: Inhibitory concentration against human Membrane-associated aspartic protease 2
T1 sequence (P56817 whole entry): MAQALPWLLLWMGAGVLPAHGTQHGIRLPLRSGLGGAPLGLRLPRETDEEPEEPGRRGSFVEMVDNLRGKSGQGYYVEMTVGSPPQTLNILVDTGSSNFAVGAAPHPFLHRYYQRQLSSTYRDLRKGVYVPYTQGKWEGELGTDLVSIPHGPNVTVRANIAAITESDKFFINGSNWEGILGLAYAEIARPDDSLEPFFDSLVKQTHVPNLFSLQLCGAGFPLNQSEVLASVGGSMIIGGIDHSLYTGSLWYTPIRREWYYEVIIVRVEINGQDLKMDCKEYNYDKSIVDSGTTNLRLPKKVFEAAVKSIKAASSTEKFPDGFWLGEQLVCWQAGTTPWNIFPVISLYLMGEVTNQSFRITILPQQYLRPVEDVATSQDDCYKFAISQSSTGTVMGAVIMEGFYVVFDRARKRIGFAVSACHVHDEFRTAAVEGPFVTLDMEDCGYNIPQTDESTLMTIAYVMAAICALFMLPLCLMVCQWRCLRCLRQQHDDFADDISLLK

Cathepsin D [2] = target: T2, Cathepsin D (Homo sapiens, UniProt P07339); assay: Inhibitory concentration against human Cathepsin D
T2 sequence (P07339 65-162 limits assumed): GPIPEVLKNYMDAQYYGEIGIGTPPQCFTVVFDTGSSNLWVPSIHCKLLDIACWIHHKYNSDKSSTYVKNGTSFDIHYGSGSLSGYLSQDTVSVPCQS
T2 sequence (P07339 169-412 limits assumed): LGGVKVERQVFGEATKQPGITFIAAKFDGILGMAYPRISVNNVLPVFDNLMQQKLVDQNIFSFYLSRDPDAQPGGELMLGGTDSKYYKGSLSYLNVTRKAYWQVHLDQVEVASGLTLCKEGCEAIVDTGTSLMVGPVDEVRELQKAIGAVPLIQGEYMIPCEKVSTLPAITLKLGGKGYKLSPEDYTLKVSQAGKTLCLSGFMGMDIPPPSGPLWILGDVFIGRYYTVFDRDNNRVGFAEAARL

Beta-secretase 1 [3] = target: T1, Beta-secretase 1; assay: Inhibitory activity against human beta-site APP-cleaving enzyme 1 at 0.01 uM
Cathepsin D [4] = target: T2, Cathepsin D; assay: Inhibitory activity against human Cathepsin D at 0.01 uM

Structure (SMILES)	IC50 (Beta-secretase 1 [1]) [nM]	IC50 (Cathepsin D [2]) [nM]	inhibition (Beta-secretase 1 [3]) [%]	inhibition (Cathepsin D [4]) [%]
CSCC[C@H](NC(=O)[C@H](CC(C)C)NC(C)=O)C(=O)N[C@@H](CC(C)C)[C@@H](O)[C@@H]1CC(=O)C[C@H]1C(=O)N[C@@H](C)C(=O)O	720	1500		
CSCC[C@H](NC(=O)[C@H](CC(C)C)NC(C)=O)C(=O)N[C@@H](CC(C)C)[C@@H](O)[C@@H]1CCC[C@H]1C(=O)N[C@H](C(=O)O)C(C)C	190	25		
CCCCNC(=O)[C@@H](NC(=O)[C@@H]1C(=O)N(CC)C[C@H]1[C@H](O)[C@H](CC(C)C)NC(=O)[C@H](CCSC)NC(=O)[C@H](CC(C)C)NC(C)=O)C(C)C	3350	130		
CC(C)C[C@H](NC(=O)[C@H](CC(N)=O)NC(=O)[C@@H](NC(=O)[C@@H](N)CCC(=O)O)C(C)C)[C@@H](O)[C@@H]1CCC[C@H]1C(=O)N[C@@H](C)C(=O)O (H-EVN[X1]A-OH)		6000		
CCCCNC(=O)[C@@H](NC(=O)[C@H]1[C@H]([C@H](O)[C@H](CC(C)C)NC(=O)[C@H](CCSC)NC(=O)[C@H](CC(C)C)NC(C)=O)CC(=O)N1C)C(C)C	< 10	70	79	
CC(C)C[C@H](NC(=O)[C@H](CC(N)=O)NC(=O)[C@@H](NC(=O)[C@@H](N)CCC(=O)O)C(C)C)[C@@H](O)[C@@H]1CCC[C@H]1C(=O)N[C@@H](C)C(=O)N[C@@H](CCC(=O)O)C(=O)N[C@@H](Cc1ccccc1)C(=O)O [CARBOCYCLIC PEPTIDOMIMETIC] (H-EVN[X1]AEF-OH)	16	< 10		90
CCCCNC(=O)[C@@H](NC(=O)[C@@H]1CCC[C@H]1[C@H](O)[C@H](CC(C)C)NC(=O)[C@H](CCSC)NC(=O)[C@H](CC(C)C)NC(C)=O)C(C)C	25	< 10		100
CCCCNC(=O)[C@@H](NC(=O)[C@@H]1CN(C)C[C@H]1[C@H](O)[C@H](CC(C)C)NC(=O)[C@H](CCSC)NC(=O)[C@H](CC(C)C)NC(C)=O)C(C)C	3440	1230		
CCCCNC(=O)[C@@H](NC(=O)[C@@H]1CC(=O)C[C@H]1[C@H](O)[C@H](CC(C)C)NC(=O)[C@H](CCSC)NC(=O)[C@H](CC(C)C)NC(C)=O)C(C)C		56		
CCCCNC(=O)[C@@H](NC(=O)[C@@H]1OCC[C@H]1[C@H](O)[C@H](CC(C)C)NC(=O)[C@H](CCSC)NC(=O)[C@H](CC(C)C)NC(C)=O)C(C)C	9560	280		
CC(C)C[C@H](NC(=O)[C@H](CC(N)=O)NC(=O)[C@@H](NC(=O)[C@@H](N)CCC(=O)O)C(C)C)[C@@H](O)[C@@H]1CCC[C@H]1C(=O)N[C@@H](C)C(=O)N[C@@H](CCC(=O)O)C(=O)O (H-EVN[X1]AE-OH)	40	60		
CCCCNC(=O)[C@H](C)NC(=O)[C@@H]1CCC[C@H]1[C@H](O)[C@H](CC(C)C)NC(=O)[C@H](CCSC)NC(=O)[C@H](CC(C)C)NC(C)=O	185	< 10		95
CSCC[C@H](NC(=O)[C@H](CC(C)C)NC(C)=O)C(=O)N[C@@H](CC(C)C)[C@@H](O)[C@@H]1CCC[C@H]1C(=O)N[C@@H](C)C(=O)O	60	90		
CCCCNC(=O)[C@@H]1CCC[C@H]1[C@H](O)[C@H](CC(C)C)NC(=O)[C@H](CCSC)NC(=O)[C@H](CC(C)C)NC(C)=O	1820	60		
CC(C)C[C@H](NC(=O)[C@H](CC(N)=O)NC(=O)[C@@H](NC(=O)[C@@H](N)CCC(=O)O)C(C)C)[C@@H](O)C[C@@H](C)C(=O)N[C@@H](C)C(=O)N[C@@H](CCC(=O)O)C(=O)N[C@@H](Cc1ccccc1)C(=O)O (H-EVN[LeuΨ(S-CHOHCH2)Ala]AEF-OH)		6		
CC(C)C[C@H](NC(=O)[C@H](CC(N)=O)NC(=O)[C@@H](NC(=O)[C@@H](N)CCC(=O)O)C(C)C)[C@@H](O)C[C@@H](C)C(=O)N[C@@H](C)C(=O)O (H-EVN[LeuΨ(S-CHOHCH2)Ala]A-OH)	12	98		
C=C1C[C@@H]([C@H](O)[C@H](CC(C)C)NC(=O)[C@H](CCSC)NC(=O)[C@H](CC(C)C)NC(C)=O)[C@H](C(=O)N[C@@H](C)C(=O)O)C1	> 10000	430		
